Test results as given in the NIST ThermoML archive (doi:10.1021/je800193a).

Assay: excess molar enthalpy (molar enthalpy of mixing); xn = mol fraction of the nth substance listed
Conditions: 101.3 kPa, Liquid, Flow calorimetry

CC(=O)c1ccccc1 [acetophenone] + CCOC(C)=O
excess molar enthalpy [kcal/mol]
Conditions	298.2 K	313.2 K	328.2 K
x1 = 0.1	-0.00292	-0.00284	-0.0028
x1 = 0.2004	-0.00509	-0.00495	-0.0049
x1 = 0.2999	-0.0066	-0.00636	-0.00626
x1 = 0.3501	-0.00707	-0.00679	-0.00674
x1 = 0.4002	-0.00739	-0.00703	-0.00693
x1 = 0.4503	-0.00755	-0.00715	-0.00698
x1 = 0.5002	-0.00755	-0.0071	-0.00688
x1 = 0.5997	-0.00717	-0.00667	-0.00638
x1 = 0.7005	-0.00629	-0.00574	-0.0054
x1 = 0.8004	-0.00483	-0.0043	-0.00392
x1 = 0.9003	-0.00246	-0.00234	-0.00196

CC(=O)c1ccccc1 [acetophenone] + CC(C)CO
excess molar enthalpy [kcal/mol]
Conditions	298.2 K	313.2 K	328.2 K	338.2 K	348.2 K
x1 = 0.1005	0.166	0.192	0.219	0.223	0.225
x1 = 0.201	0.263	0.312	0.356	0.367	0.369
x1 = 0.301	0.327	0.39	0.449	0.46	0.462
x1 = 0.3512	0.346	0.414	0.476	0.488	0.491
x1 = 0.4014	0.361	0.432	0.494	0.507	0.509
x1 = 0.4516	0.371	0.443	0.504	0.516	0.519
x1 = 0.5017	0.375	0.446	0.505	0.516	0.52
x1 = 0.5518	0.373	0.443	0.498	0.508	0.51
x1 = 0.6016	0.366	0.432	0.482	0.489	0.492
x1 = 0.6513	0.354	0.415	0.456	0.463	0.467
x1 = 0.7008	0.335	0.389	0.423	0.426	0.428
x1 = 0.8016	0.271	0.305	0.324	0.325	0.329
x1 = 0.901	0.164	0.177	0.183	0.185	0.187

CC(=O)c1ccccc1 [acetophenone] + CCCCCC
excess molar enthalpy [kcal/mol]
Conditions	298.2 K	313.2 K	328.2 K
x1 = 0.0997	0.169	0.173	0.175
x1 = 0.2	0.263	0.277	0.285
x1 = 0.2994	0.306	0.329	0.342
x1 = 0.3503	0.317	0.343	0.357
x1 = 0.4006	0.321	0.349	0.365
x1 = 0.4503	0.321	0.35	0.367
x1 = 0.4995	0.316	0.346	0.363
x1 = 0.5494	0.308	0.336	0.353
x1 = 0.5999	0.295	0.319	0.337
x1 = 0.6499	0.278	0.293	0.313
x1 = 0.7005	0.257	0.265	0.277
x1 = 0.8	0.2	0.203	0.207
x1 = 0.8995	0.113	0.115	0.117
